Assay [1] in a line: Inhibition of Escherichia coli DNA polymerase 1 Klenow fragment preincubated for 15 mins followed by addition of DNA substrate for 60 mins in presence of dNTPS/TAMRA tracer by fluorescence polarization assay. (In general: Polarisation of emitted light reports the rotation of a fluorescent probe.)
The nature of assay [2]: Inhibition of Escherichia coli DNA polymerase 1 Klenow fragment preincubated for 15 mins followed by addition of DNA substrate for 60 mins in presence of dNTPS by picoGreen reagent based assay.

In general, IC50 refers to the concentration that gives 50% inhibition. For `Nc1ncnc2c1ncn2[C@H]1CC[C@@H](COP(=O)(O)OP(=O)(O)OP(=O)(O)O)O1` [DDA-TRIPHOSPHATE], the values for the IC50 in assay [1] and in assay [2] were 27 µM and 69 µM, respectively.

The values above are taken from ChEMBL document CHEMBL4431345, “A fluorescence polarization based assay for the identification and characterization of polymerase inhibitors” (Bioorg Med Chem Lett, 2016).
